For this experiment, the system named is male ICR mice. Nature of the experiment: MES test (anti-epilepsy activity), mice, oral (mMES po). Type of experiment: in vivo. Particulars: Mus musculus; for responders at 100 mg/kg: injection amount 100 mg/kg; for responders at 100 mg/kg / responders at 80 mg/kg / responders at 50 mg/kg / responders at 30 mg/kg: read-out: mMES(po) Protection %; for responders at 80 mg/kg: injection amount 80 mg/kg; for responders at 50 mg/kg: injection amount 50 mg/kg; for responders at 30 mg/kg: injection amount 30 mg/kg; for ED50: mice, at peak time. The protocol: Biological Experimental Example. 1: Measurement of Anti-Epilepsy Activity (MES-Test)
In the MES test (Ref., G. Villetti et al. Neuropharmacology 40(2001) 866-878), an electrical stimulus (mice: 50 mA, 60 Hz, 0.2 sec, and rats: 150 mA, 60 Hz, 0.2 sec in the test animal) supplied by an 11 A Shocker (IITC Life Science Company) was delivered through corneal electrodes. All mice or rats assigned to any electroshock at peak time were treated with each test compound sample which was dissolved in 20% tween 80 prepared by saline solvent applied orally before the test. […] Three doses of the test sample were administered orally to 9-18 animals (3-6 mice per dose) for evaluating the respective doses at which 50% of the animals were protected from seizure (ED50). The ED50 value (median effective close) was calculated by Litchfield and Wicoxon log-probit method which is a dose-response relationship. Experimental animals, male ICR mice and male SD rats, were purchased from OrientBio, Samtako, or Nara Biotech, Korea, and housed in cages (4-5 mice or 3 rats per cage) for 4-5 days. The range of mice body weight was between 19 and 25 grams and range of rats body weight was between 100 and 130 grams.
The obtained results are shown as mean±sem. The difference between the groups was statistically analyzed by ANOVA, and then further examined by Dunnett's test or Bonferroni test. If p is less than 0.05, it was determined that the difference between the groups had statistical significance.
The results of anti-epileptic activity of the sulfamate derivative compounds measured in the above Experimental Example are shown in the following Tables 4 and 5.

Like-named read-outs stand apart in the source and are kept apart here.

Data on 30 compounds can be found in patent publication US9937145B2, “Sulfamate derivative compound for use in preventing or treating epilepsy” (Bio-Pharm Solutions Co., Ltd., priority 2013, dated 2018).

By ED50 is commonly meant the midpoint of the dose-response relation. A lower ED50 goes with greater potency.

Turning to `CC1(C)OC(COS(N)(=O)=O)C(c2cnc(Cl)nc2)O1` (stereo not drawn) [Example 176, (2,2-dimethyl-5-(2-chloropyrimidin-5-yl)-1,3-dioxolan-4-yl)methylsulfamate], the responders at 100 mg/kg (3 mice) was determined as 100%.

In the case of `CC1(C)O[C@H](CCOS(N)(=O)=O)[C@@H](Cc2ccccc2Cl)O1` [Example 138, 2-((4R, 5R)-5-(2-chlorobenzyl)-2,2-dimethyl-1,3-dioxolan-4-yl)ethyl sulfamate], where the note is “3 mice”, the responders at 80 mg/kg is 33.3%.

Regarding `Nc1ccccc1[C@@H]1OC(c2ccccc2)O[C@H]1COS(N)(=O)=O` (stereo partly drawn) [Example 76, ((4S, 5S)-5-(2-aminophenyl)-2-phenyl-1,3-dioxolan-4-yl)methyl sulfamate], for the setting “3 mice”, the responders at 50 mg/kg is 66%.

Consider `CC1(C)O[C@@H](COS(N)(=O)=O)[C@@H](c2ccccc2Cl)O1` [Example 162, ((4S, 5R)-5-(2-chlorophenyl)-2,2-dimethyl-1,3-dioxolan-4-yl)methyl sulfamate], for which the responders at 100 mg/kg (3 mice) turned out to be 100%.

Regarding `NS(=O)(=O)OC[C@H]1OC2(CCCC2)O[C@@H]1Cc1ccccc1Cl` [Example 150, ((2R, 3R)-3-(2-chlorobenzyl)-1,4-dioxaspiro[4,4]nonan-2-yl)methyl sulfamate], the responders at 50 mg/kg (3 mice) worked out at 100%.

Consider `NS(=O)(=O)OC[C@H]1OC2(CCCCC2)O[C@@H]1Cc1ccccc1` [Example 128, ((2R, 3R)-3-benzyl-1,4-dioxaspiro[4,5]decan-2-yl)methyl sulfamate], for which the responders at 50 mg/kg (3 mice) was 100%.

For `CCC1(CC)O[C@H](CCOS(N)(=O)=O)[C@@H](Cc2ccccc2Cl)O1` [Example 140, 2-((4R, 5R)-5-(2-chlorobenzyl)-2,2-diethyl-1,3-dioxolan-4-yl)ethyl sulfamate], the responders at 50 mg/kg (3 mice) is 33.3%.

Consider `NS(=O)(=O)OCC[C@H]1OC2(CCCCC2)O[C@@H]1Cc1ccccc1` [Example 120, 2-((2R, 3R)-3-benzyl-1,4-dioxaspiro[4,5]decane-2-yl)ethyl sulfamate], for which the responders at 80 mg/kg (3 mice) stood at 66.6%.

`CC1(C)O[C@@H](COS(N)(=O)=O)[C@H](c2ccccc2)O1` [Example 106, ((4S, 5S)-5-phenyl-2,2-dimethyl-1,3-dioxolan-4-yl)methyl sulfamate]: the responders at 30 mg/kg (3 mice) was determined as 100%.

For the compound `NS(=O)(=O)OCC[C@@H]1OC2(CCCCC2)O[C@H]1c1ccccc1` [Example 136, 2-((2S, 3S)-3-phenyl-1,4-dioxaspiro[4,5]decan-2-yl)ethyl sulfamate], the responders at 50 mg/kg (3 mice) was 100%.

On to `CCC1(CC)O[C@@H](CCOS(N)(=O)=O)[C@H](c2ccccc2)O1` [Example 132, 2-((4S, 5S)-5-phenyl-2,2-diethyl-1,3-dioxolan-4-yl)ethyl sulfamate], for which the responders at 80 mg/kg (3 mice) is 33.3%.

In the case of `CC1(C)OC(COS(N)(=O)=O)C(c2cncnc2)O1` (stereo not drawn) [Example 175], under “3 mice”, the responders at 100 mg/kg was 100%.

For the compound `NS(=O)(=O)OC[C@@H]1OC2(CCCC2)O[C@H]1c1ccccc1Cl` [Example 10, ((2S, 3 S)-3-(2-chlorophenyl)-1,4-dioxaspiro[4,4]nonan-2-yl)methyl sulfamate], the responders at 30 mg/kg (3 mice) was determined as 66%.

Regarding `CCC1(CC)O[C@@H](CCOS(N)(=O)=O)[C@H](c2ccccc2Cl)O1` [Example 156, 2-((4S, 5S)-5-(2-chlorophenyl)-2,2-diethyl-1,3-dioxolan-4-yl)ethyl sulfamate], the responders at 80 mg/kg (3 mice) was determined as 100%.

For the compound `CC1(C)O[C@@H](COS(N)(=O)=O)[C@H](c2c(Cl)cccc2Cl)O1` [Example 52, ((4S, 5S)-5-(2,6-dichlorophenyl)-2,2-dimethyl-1,3-dioxolan-4-yl)methyl sulfamate], the responders at 50 mg/kg (3 mice) worked out at 100%.

As for `CC1(C)O[C@@H](COS(N)(=O)=O)[C@H](c2ccc(Cl)cc2Cl)O1` [Example 40, ((4S, 5S)-5-(2,4-dichlorophenyl)-2,2-dimethyl-1,3-dioxolan-4-yl)methyl sulfamate], the ED50 stood at 49.2 mg/kg.

Consider `NS(=O)(=O)OCC[C@H]1OC2(CCCC2)O[C@@H]1Cc1ccccc1Cl` [Example 142, 2-((2R, 3R)-3-(2-chlorobenzyl)-1,4-dioxaspiro[4,4]nonan-2-yl)ethyl sulfamate], for which the responders at 80 mg/kg (3 mice) stood at 33.3%.

`CC1(C)O[C@@H](CCOS(N)(=O)=O)[C@H](c2ccccc2Cl)O1` [Example 154, 2-((4S, 5S)-5-(2-chlorophenyl)-2,2-dimethyl-1,3-dioxolan-4-yl)ethyl sulfamate]: for the setting “3 mice”, the responders at 50 mg/kg worked out at 100%.

`NS(=O)(=O)OC[C@@H]1OC2(CCCCC2)O[C@H]1c1ccccc1` [Example 112, ((2S, 3S)-3-phenyl-1,4-dioxaspiro[4,5]decan-2-yl)methyl sulfamate]: the responders at 50 mg/kg (3 mice) worked out at 100%.

Regarding `CC1(C)O[C@H](CCOS(N)(=O)=O)[C@@H](Cc2ccccc2)O1` [Example 114, 2-((4R, 5R)-5-benzyl-2,2-dimethyl-1,3-dioxolan-4-yl)ethyl sulfamate], for the setting “3 mice”, the responders at 80 mg/kg turned out to be 33.3%.

As to `NS(=O)(=O)OC[C@H]1OC2(CCCCC2)O[C@@H]1Cc1ccccc1Cl` [Example 152, ((2R, 3R)-3-(2-chlorobenzyl)-1,4-dioxaspiro[4,5]decan-2-yl)methyl sulfamate], the responders at 50 mg/kg (3 mice) was determined as 66.6%.

Take `CCC1(CC)O[C@@H](COS(N)(=O)=O)[C@H](c2ccccc2Cl)O1` [Example 8, ((4S, 5S)-5-(2-chlorophenyl)-2,2-diethyl-1,3-dioxolan-4-yl)methyl sulfamate]: the responders at 50 mg/kg (4 mice) was found to be 100%.

`NS(=O)(=O)OCC[C@H]1OC2(CCCCC2)O[C@@H]1Cc1ccccc1Cl` [Example 144, 2-((2R, 3R)-3-(2-chlorobenzyl)-1,4-dioxaspiro[4,5]decan-2-yl)ethyl sulfamate]: under “3 mice”, the responders at 100 mg/kg stood at 33.3%.

Regarding `CC1(C)O[C@@H](COS(N)(=O)=O)[C@H](c2ccsc2)O1` [Example 171, ((4S, 5S)-2,2-dimethyl-5-(thiophen-3-yl)-1,3-dioxolan-4-yl)methylsulfamate], the ED50 turned out to be 43.3 mg/kg.

Take `CCC1(CC)O[C@H](COS(N)(=O)=O)[C@@H](Cc2ccccc2Cl)O1` [Example 148, ((4R, 5R)-5-(2-chlorobenzyl)-2,2-diethyl-1,3-dioxolan-4-yl)methyl sulfamate]: the responders at 50 mg/kg (3 mice) is 33.3%.

In the case of `CC1(C)O[C@H](COS(N)(=O)=O)[C@@H](Cc2ccccc2)O1` [Example 122, ((4R, 5R)-5-benzyl-2,2-dimethyl-1,3-dioxolan-4-yl)methyl sulfamate], the responders at 50 mg/kg (3 mice) worked out at 100%.

`CCC1(CC)O[C@@H](COS(N)(=O)=O)[C@H](c2ccccc2N)O1` [Example 70, ((4S, 5S)-5-(2-aminophenyl)-2,2-diethyl-1,3-dioxolan-4-yl)methyl sulfamate]: the responders at 50 mg/kg (3 mice) was 100%.

On to `CCC1(CC)O[C@H](COS(N)(=O)=O)[C@@H](Cc2ccccc2)O1` [Example 124, ((4R, 5R)-5-benzyl-2,2-diethyl-1,3-dioxolan-4-yl)methyl sulfamate], for which the responders at 50 mg/kg (3 mice) was found to be 100%.

As to `NS(=O)(=O)OCC[C@@H]1OC2(CCCCC2)O[C@H]1c1ccccc1Cl` [Example 160, 2-((2S, 3S)-3-(2-chlorophenyl)-1,4-dioxaspiro[4,5]decan-2-yl)ethyl sulfamate], where the note is “3 mice”, the responders at 80 mg/kg stood at 66.6%.

In the case of `CNc1ccccc1[C@@H]1OC(C)(C)O[C@H]1COS(=O)(=O)NC` [Example 104, ((4S, 5S)-5-(2-methylaminophenyl)-2,2-dimethyl-1,3-dioxolan-4-yl)methyl methylsulfamate], the responders at 50 mg/kg (3 mice) was determined as 66.6%.
